Reference: EP3173083A1, “IN VIVO ANTIANGIOGENIC EFFECT OF A PALLADIUM COMPLEX” (Istanbul Universitesi Rektorlugu, priority 2015, dated 2017)

Test system: CAM
Assay: chorioallantoic membrane (CAM) model of antiangiogenic effect
Format: in vivo, chicken
Conditions: for Score: average antiangiogenic score on CAM, evaluated by stereomicroscope 24 hours after pellet application; for antiangiogenic effect on CAM: effect class by scoring system of Table 1, 50 µg/pellet
Excerpt: In a study performed on the antiangiogenic effect of palladium complex of the invention, a method which is named chorioallantoic membrane (CAM) model is used. The model in question is a method developed by the embryologists more than 50 years ago, has a broad area of usage in embryonic researches (Auerbach, R., Lewis, R., Shinners, B., Kubai, L., Akhtar, N., 2003. Angiogenesis assays: a critical overview. Clin. Chem., 49(1): 32-40). Since 1956, the model is used in cancer and metastasis researches. The model has been started to be used in angiogenesis studies by Folkman in 1976. CAM is a non-embryo membrane which is formed by the merger of chorion and allantois as a result of an incubation of four-days. Although it is widely used in embryonic researches, it also has a broad range of usage in cancer and metastasis researches (Ribatti, D., 2010. The inefficacy of antiangiogenic therapies. J. Angiogenes. Res., 2:27. doi: 10.1186/2040-2384-2-27). […] The method is one of the most commonly used methods since it is quick, cheap and semi quantitative and enable scanning of many new agents (Cimpean, A.M., Ribatti, D., Raica, M., 2008. The chick embryo chorioallantoic membrane as a model to study tumor metastasis. Angiogenesis, 11(4): 311-319; Ribatti, D., 2008. Chick embryo chorioallantoic membrane as a useful tool to study angiogenesis. Int. Rev. Cell Mol. Biol., 270: 181-224).
The experiment Protocol which was reported in 1967 by D'Arcy and Howard and in 2002 by Bürgermeister and his colleagues was used (D'Arcy, P.F., Howard, E.M.,1967. A new anti-inflammatory test, utilizing the chorio-allantoic membrane of the chick embryo. Br. J. Pharmacol. Chemother., 29(3): 378-38; Bürgermeister, J., Paper, D.H., Vogl, H., Linhardt, R.J., Franz, G., 2002. LaPSvS1, a (1-->3)-beta-galactan sulfate and its effect on angiogenesis in vivo and in vitro. Carbohydr. Res., 337(16): 1459-1466).
The palladium complex, 5 mg/ml (50 µg /pellet), the standard control agents sodium dodecyl sulfate (SDS), cortisone, prednisone, (±)-thalidomide has been suspended in 2,5 % (w/v) agar at a final concentration of 50 µg /pellet by heating (60 °C<). Then, 10 µl is taken from this suspension and provided to become frozen pellet at room temperature by being applied on stainless steel cylinder supports with a diameter 5 mm. Pellets are applied onto the surface of CAM.
The procedure for CAM experiment is given in Figure 1 (Kiyan, H.T., 2010. Baz ? Hypericum Türlerinin Uçucu Yaǧ Bile ? imleri ve Antianjiyojenik Aktiviteleri, Yüksek Lisans Tezi, Anadolu Üniversitesi, Saǧl ? k Bilimleri Enstitüsü, Farmakognozi Program ? , 19p). Accordingly, fertilized chicken eggs to be used in experiment are incubated at 36,5 °C and in an incubator with 80% relative humidity (climatization cabin) at horizontal position for 72 hours before the experiment. In this period, eggs were carefully upturned time to time. At the end of the incubation period, firstly, from the bottom side of eggs with the help of the sterile injectors, 10-15 ml of albumin (egg white) is slowly removed and then from the top side of eggs (more upright and sharp part), shell and membrane are carefully removed with the help of the forceps (Figure-1, A). Living and developing embryo CAM immediately taken under protection with a stretch film, is waited again at 36,5 °C and in an incubator with 80% relative humidity for another 72 hours (Figure-1, B). When diameter of the CAM is detected to be approximately 2 cm, one piece of freshly prepared sample pellet for each egg is placed into the capillaries on the CAM (Figure-1, C). 15 pellets from each material is applied on CAM of an equal number of eggs and covered with stretch film. Before the evaluations, eggs were incubated for another 24 hours in such a way that pellets are placed in under specified conditions. […]

SMILES | toxic or irritant effect on CAM (50 µg/pellet) | Irritation (%) (CAM, 50 µg/pellet, 24 hours after pellet application) | Score (50 µg/pellet) | antiangiogenic effect on CAM
CCCCCCCCCCCCOS(=O)(=O)[O-].[Na+] [Sodium dodecyl sulphate (SDS), Sodium dodecyl sulphate] | irritant effect | 87 ± 5 | 0.1 ± 0.1 | 
O=C1CCC(N2C(=O)c3ccccc3C2=O)C(=O)N1 (racemic) [(±)-Thalidomide] |  |  | 0.9 ± 0.2 | strong
C[C@]12CCC(=O)C=C1CC[C@@H]1[C@@H]2C(=O)C[C@@]2(C)[C@H]1CC[C@]2(O)C(=O)CO [Cortisone] |  |  | 1.2 ± 0.2 | very strong
C[C@]12C=CC(=O)C=C1CC[C@@H]1[C@@H]2C(=O)C[C@@]2(C)[C@H]1CC[C@]2(O)C(=O)CO [Prednisone] |  |  | 0.9 ± 0.7 | strong
O=C1c2ccccc2S(=O)(=O)[N]1[Pd-2]12[n+]3ccccc3-c3cccc([n+]31)-c1cccc[n+]12 [Palladium complex, [Pd(sac)(terpy)] (sac)•4H2O (sac=saccharinate and terpy=2,2':6',2"-terpyridine)]] | no toxic or irritant effect |  |  | very strong
